Assays:
C8161 cells [1] = experiment: FITC-oligonucleotide uptake assay (nuclear fluorescence score); type: cell-based, human; design: key: 0: No nuclear fluorescence; 1: up to 20% fluorescent nuclei; 2: up to 40% fluorescent nuclei; 3: up to 60% fluorescent nuclei; 4: up to 80% fluorescent nuclei; 5: up to 100% fluorescent nuclei; conditions: lipid:oligomer 9:1 or 6:1 by weight, 4-6 h
RD cells [2] = experiment: as above; type: cell-based, human; design: key: 0: No nuclear fluorescence; 1: up to 20% fluorescent nuclei; 2: up to 40% fluorescent nuclei; 3: up to 60% fluorescent nuclei; 4: up to 80% fluorescent nuclei; 5: up to 100% fluorescent nuclei; conditions: lipid:oligomer 9:1 or 6:1 by weight, 4-6 h
SNB-19 cells [3] = experiment: Transient transfection of CAT plasmid pG1035 with cationic lipids, CAT activity in lysate; type: cell-based, human; conditions: for Mean (transient transfection efficiency; CAT activity normalized to total protein): CAT plasmid pG1035 2 μg/mL, lipid 18 μg/mL (9 to 1 lipid to DNA), triplicate; for REL (transient transfection efficiency relative to best lipid in the cell line): CAT plasmid pG1035, 9 to 1 lipid to DNA
Procedure: (§1) Cell lines were plated at 1.5×10^5 cells/well in a 12 well plate format on the day before tranfection. […] This small quantity of ethanol was confirmed to have no adverse effect on any of the cell lines. […] Cell lysates were prepared by rinsing twice in PBS and then were treated with 0.5 mL of 1× Reporter Lysis Buffer (Promega, Madison, Wis.). The lysed cells were pipetted into 1.5 mL tubes and frozen in CO2/EtOH once and thawed. The crude lysate was then clarified by microcentrifugation at 14,000 rpm for 10 minutes to pellet cell debris. The clear supernatant was recovered and assayed directly or stored at -20° C. for assay later. The cell lysates were then assayed for CAT activity and the total protein concentration was determined as described below in Example 7. The CAT activity was normalized to total protein and plotted as shown. This assay was performed generally as follows. First, the following reaction mixture was prepared for each sample: […] Louis, Mo.), 4 mL ^14C-chloramphenicol, 50 nCi/mL (Dupont, Boston, Mass.), and 5 mL mg/mL n-butyryl coenzyme A (Pharmacia, Piscataway, N.J.). […] The original stock CAT was at 7000 Units/mL. […] Approximately […] of reaction mixture was then added to each sample tube, which was then typically incubated for approximately 1 hour in a 37° C. oven. The reaction was terminated by adding […] pristane:mixed xylenes (2:1) (Sigma, St. Louis, Mo.) to each tube. The tubes were then vortexed for 2 minutes and spun for 5 minutes. Approximately […] of the upper phase was transferred to a scintillation vial with 5 mL Scintiverse (Fisher, Pittsburgh, Pa.). The sample was then counted in a scintillation counter (Packard). The plasmid pG1035 was used for transient transfections of COS-7 (ATCC # CRL-1651), SNB-19, C8161 and RD (ATCC # CCL-136) cells. pG1035 consists of a modified CAT (choramphenicol acetyl transferase) gene (named […]) inserted into the eukaryotic vector pRc/CMV (Invitrogen, San Diego, Calif.). […] created by inserting an artificial intron into the wild type CAT gene sequence in a plasmid named pG1036 (also based on pRc/CMV) using the polymerase chain reaction. […] Concentration curve standards were prepared using 6 μL of […] BSA stock solutions and 300 mL of the Coomassie reagent. The assay samples were allowed to sit for approximately 30 minutes before reading the optical absorbance at 570 nm in a microplate reader (Molecular Probes). The cells were assayed for CAT protein as described above.

C8161 cells [4] = experiment: as above; type: cell-based, human; conditions: for Mean (transient transfection efficiency; CAT activity normalized to total protein): CAT plasmid pG1035 2 μg/mL, lipid 18 μg/mL (9 to 1 lipid to DNA), triplicate; for REL (transient transfection efficiency relative to best lipid in the cell line): CAT plasmid pG1035, 9 to 1 lipid to DNA
Procedure: as §1

RD cells [5] = experiment: as above; type: cell-based, human; conditions: for Mean (transient transfection efficiency; CAT activity normalized to total protein): CAT plasmid pG1035 2 μg/mL, lipid 18 μg/mL (9 to 1 lipid to DNA), triplicate; for REL (transient transfection efficiency relative to best lipid in the cell line): CAT plasmid pG1035, 9 to 1 lipid to DNA
Procedure: as §1

SNB-19 cells [6] = experiment: FITC-oligonucleotide uptake assay (nuclear fluorescence score); type: cell-based, human; design: key: 0: No nuclear fluorescence; 1: up to 20% fluorescent nuclei; 2: up to 40% fluorescent nuclei; 3: up to 60% fluorescent nuclei; 4: up to 80% fluorescent nuclei; 5: up to 100% fluorescent nuclei; conditions: SNB19, lipid:oligomer 9:1 or 6:1 by weight, 4-6 h
COS-7 cells [7] = experiment: Transient transfection of CAT plasmid pG1035 with cationic lipids, CAT activity in lysate; type: cell-based, African green monkey; conditions: for Mean (transient transfection efficiency; CAT activity normalized to total protein): CAT plasmid pG1035 2 μg/mL, lipid 18 μg/mL (9 to 1 lipid to DNA), triplicate; for REL (transient transfection efficiency relative to best lipid in the cell line): CAT plasmid pG1035, 9 to 1 lipid to DNA
Procedure: as §1

COS-7 cells [8] = experiment: FITC-oligonucleotide uptake assay (nuclear fluorescence score); type: cell-based, African green monkey; design: key: 0: No nuclear fluorescence; 1: up to 20% fluorescent nuclei; 2: up to 40% fluorescent nuclei; 3: up to 60% fluorescent nuclei; 4: up to 80% fluorescent nuclei; 5: up to 100% fluorescent nuclei; conditions: COS7, lipid:oligomer 9:1 or 6:1 by weight, 4-6 h
[9] = FITC oligomer 3498-PS (phosphorothioate) 0.25 micromolar
[10] = FITC oligomer 3498 Chimera 0.25 micromolar
[11] = FITC oligomer 3793-2 alternating (methylphosphonate/diester, 2'-O-methyl) 0.25 micromolar

| Structure (SMILES) | Nuclear delivery of oligonucleotide (uptake score) (C8161 cells [1]; [9]) | Nuclear delivery of oligonucleotide (uptake score) (C8161 cells [1]; [10]) | Nuclear delivery of oligonucleotide (uptake score) (C8161 cells [1]; [11]) | Nuclear delivery of oligonucleotide (uptake score) (RD cells [2]; [9]) | Nuclear delivery of oligonucleotide (uptake score) (RD cells [2]; [10]) | Nuclear delivery of oligonucleotide (uptake score) (RD cells [2]; [11]) | Mean (transient transfection efficiency; CAT activity normalized to total protein) (SNB-19 cells [3]) | REL (transient transfection efficiency relative to best lipid in the cell line) (SNB-19 cells [3]) | Mean (transient transfection efficiency; CAT activity normalized to total protein) (C8161 cells [4]) | REL (transient transfection efficiency relative to best lipid in the cell line) (C8161 cells [4]) | Mean (transient transfection efficiency; CAT activity normalized to total protein) (RD cells [5]) | REL (transient transfection efficiency relative to best lipid in the cell line) (RD cells [5]) | Nuclear delivery of oligonucleotide (uptake score) (SNB-19 cells [6]; [9]) | Nuclear delivery of oligonucleotide (uptake score) (SNB-19 cells [6]; [10]) | Nuclear delivery of oligonucleotide (uptake score) (SNB-19 cells [6]; [11]) | Mean (transient transfection efficiency; CAT activity normalized to total protein) (COS-7 cells [7]) | REL (transient transfection efficiency relative to best lipid in the cell line) (COS-7 cells [7]) | Nuclear delivery of oligonucleotide (uptake score) (COS-7 cells [8]; [9]) | Nuclear delivery of oligonucleotide (uptake score) (COS-7 cells [8]; [10]) | Nuclear delivery of oligonucleotide (uptake score) (COS-7 cells [8]; [11]) |
| --- | --- | --- | --- | --- | --- | --- | --- | --- | --- | --- | --- | --- | --- | --- | --- | --- | --- | --- | --- | --- |
| CCCCCCCCCCCCCCCCCCN(CCCCCCCCCCCCCCCCCC)C(=O)CC[C@H](NC(=O)[C@H](CCCNCCCN)NCCCN)C(=O)O.Cl.Cl.Cl.Cl [Compound 2-5, N^2-[N^2,N^5-Bis(3-aminopropyl)-L-ornithyl]-N,N-dioctadecyl-L-glutamine, tetrahydrochloride] | 3 (up to 60% fluorescent nuclei) | 4 (up to 80% fluorescent nuclei) | 3 (up to 60% fluorescent nuclei) | 3 (up to 60% fluorescent nuclei) | 4 (up to 80% fluorescent nuclei) | 4 (up to 80% fluorescent nuclei) | 103280 | 0.55 | 137710 | 0.69 | 73921 | 0.41 | 3 (up to 60% fluorescent nuclei) | 3 (up to 60% fluorescent nuclei) | 3 (up to 60% fluorescent nuclei) | 55598 | 0.33 | 2 (up to 40% fluorescent nuclei) | 2 (up to 40% fluorescent nuclei) | 1 (up to 20% fluorescent nuclei) |
| CCCCCCCCCCCCCCCCCC(CCCCCCCCCCCCCCCCC)NC(=O)CNC(=O)CNC(=O)[C@H](CCCNCCCN)NCCCN.O=C(O)C(F)(F)F.O=C(O)C(F)(F)F.O=C(O)C(F)(F)F.O=C(O)C(F)(F)F [Compound 1-10, N^2,N^5-Bis(3-aminopropyl)-L-ornithylglycyl-N-(1-heptadecyloctadecyl)glycinamide, Tetrahydrotrifluoroacetate] | 5 (up to 100% fluorescent nuclei) | 3 (up to 60% fluorescent nuclei) | 0 | 5 (up to 100% fluorescent nuclei) | 4 (up to 80% fluorescent nuclei) | 0 | 166179 | 0.88 | 159578 | 0.8 | 124232 | 0.7 | 4 (up to 80% fluorescent nuclei) | 4 (up to 80% fluorescent nuclei) | 0 | 148040 | 0.87 | 4 (up to 80% fluorescent nuclei) | 3 (up to 60% fluorescent nuclei) | 0 |
